{"source": "patent US8137705B2", "about": "(priority 2005, dated 2012)", "test_system": "E. coli O157:H7", "assay": "E. coli O157:H7 counts in water with rumen content treated with ozone", "format": "cell-based", "conditions": "for E. coli O157:H7 (log10 cfu/ml) at min: 0: 0 min; for E. coli O157:H7 (log10 cfu/ml) at min: 1: 1 min; for E. coli O157:H7 (log10 cfu/ml) at min: 2: 2 min; for E. coli O157:H7 (log10 cfu/ml) at min: 5: 5 min; for E. coli O157:H7 (log10 cfu/ml) at min: 10: 10 min; for E. coli O157:H7 (log10 cfu/ml) at min: 20: 20 min", "experimental": "Ozone was produced by an laboratory scale ozone generator (Model H-50, Hess Machine International, Ephrata, Pa.) equipped with an oxygen concentrator (Model AS-12, AirSep, Buffalo, N.Y.) and ozone concentrations (ppm) were measured by the indigo calorimeter method. Ozonated (22-24 ppm at 5° C.) water was mixed with rumen content at ratios of 100:1, 50:1, 25:1, 10:1, and 5:1. MilliQ water (Milli-Q Synthesis A10, Millipore Corp. Brillerica, Mass.) was used as the control. One ml of a mixture of 5 strains of E. coli O157:H7 (10^8 cfu) was mixed with 199 ml of the ozonated water with rumen content at 5° C. and sampled from 0 to 20 min. At each sampling time, 1 ml was removed, and immediately mixed with 9 ml of neutralizing buffer and serially (1:10) diluted and a volume of 0.1 ml from each dilution tube was plated on SMA-NA and TSA-NA plates in duplicate. Plates were incubated at 37° C. for 24 h. Presumptive E. coli O157:H7 colonies were counted and confirmed according to the method described above. All studies were done in duplicate.", "key": {"[1]": {"conditions": "22-24 ppm ozone, Ozonated water only (no rumen content), 5° C."}, "[2]": {"conditions": "22-24 ppm ozone, water:rumen content 20:1, 5° C."}, "[3]": {"conditions": "22-24 ppm ozone, water:rumen content 50:1, 5° C."}, "[4]": {"conditions": "22-24 ppm ozone, water:rumen content 100:1, 5° C."}, "[5]": {"conditions": "22-24 ppm ozone, water:rumen content 200:1, 5° C."}}, "note": "Entries after “also recorded” stand apart in the source; their conditions may differ."}
{"smiles": "O=[O+][O-]", "note": "[ozone]", "values": [{"measurement": "killing of 10^6-10^7 E. coli O157:H7/ml", "setting": "22-24 ppm ozone, 5° C., water with no rumen content, direct plating", "result": "undetectable level"}, {"measurement": "E. coli O157:H7 inactivation", "setting": "22-24 ppm ozone, 50 parts water to 1 part rumen content", "result": "Little to no E. coli O157:H7 inactivation"}, {"measurement": "effect of rumen content on antimicrobial activity of ozone", "setting": "22-24 ppm ozone, 100 parts water to 1 part rumen content or more", "result": "neutralized; also recorded: greatly decreased the antimicrobial activity"}, {"measurement": "E. coli O157:H7 (log10 cfu/ml) at min: 0", "setting": "[1]", "result": "<1.7", "unit": "log10 cfu/ml"}, {"measurement": "E. coli O157:H7 (log10 cfu/ml) at min: 1", "setting": "[1]", "result": "<1.7", "unit": "log10 cfu/ml"}, {"measurement": "E. coli O157:H7 (log10 cfu/ml) at min: 2", "setting": "[1]", "result": "<1.7", "unit": "log10 cfu/ml"}, {"measurement": "E. coli O157:H7 (log10 cfu/ml) at min: 5", "setting": "[1]", "result": "<1.7", "unit": "log10 cfu/ml"}, {"measurement": "E. coli O157:H7 (log10 cfu/ml) at min: 10", "setting": "[1]", "result": "<1.7", "unit": "log10 cfu/ml"}, {"measurement": "E. coli O157:H7 (log10 cfu/ml) at min: 20", "setting": "[1]", "result": "<1.7", "unit": "log10 cfu/ml"}, {"measurement": "E. coli O157:H7 (log10 cfu/ml) at min: 0", "setting": "[2]", "result": 5.6, "unit": "log10 cfu/ml"}, {"measurement": "E. coli O157:H7 (log10 cfu/ml) at min: 1", "setting": "[2]", "result": 5.2, "unit": "log10 cfu/ml"}, {"measurement": "E. coli O157:H7 (log10 cfu/ml) at min: 2", "setting": "[2]", "result": 5.1, "unit": "log10 cfu/ml"}, {"measurement": "E. coli O157:H7 (log10 cfu/ml) at min: 5", "setting": "[2]", "result": 5.1, "unit": "log10 cfu/ml"}, {"measurement": "E. coli O157:H7 (log10 cfu/ml) at min: 10", "setting": "[2]", "result": 5.4, "unit": "log10 cfu/ml"}, {"measurement": "E. coli O157:H7 (log10 cfu/ml) at min: 20", "setting": "[2]", "result": 5.2, "unit": "log10 cfu/ml"}, {"measurement": "E. coli O157:H7 (log10 cfu/ml) at min: 0", "setting": "[3]", "result": 6.2, "unit": "log10 cfu/ml"}, {"measurement": "E. coli O157:H7 (log10 cfu/ml) at min: 1", "setting": "[3]", "result": 6.2, "unit": "log10 cfu/ml"}, {"measurement": "E. coli O157:H7 (log10 cfu/ml) at min: 2", "setting": "[3]", "result": 6.4, "unit": "log10 cfu/ml"}, {"measurement": "E. coli O157:H7 (log10 cfu/ml) at min: 5", "setting": "[3]", "result": 6.4, "unit": "log10 cfu/ml"}, {"measurement": "E. coli O157:H7 (log10 cfu/ml) at min: 10", "setting": "[3]", "result": 6.5, "unit": "log10 cfu/ml"}, {"measurement": "E. coli O157:H7 (log10 cfu/ml) at min: 20", "setting": "[3]", "result": 6.3, "unit": "log10 cfu/ml"}, {"measurement": "E. coli O157:H7 (log10 cfu/ml) at min: 0", "setting": "[4]", "result": 5.2, "unit": "log10 cfu/ml"}, {"measurement": "E. coli O157:H7 (log10 cfu/ml) at min: 1", "setting": "[4]", "result": 5.4, "unit": "log10 cfu/ml"}, {"measurement": "E. coli O157:H7 (log10 cfu/ml) at min: 2", "setting": "[4]", "result": 5.5, "unit": "log10 cfu/ml"}, {"measurement": "E. coli O157:H7 (log10 cfu/ml) at min: 5", "setting": "[4]", "result": 5.2, "unit": "log10 cfu/ml"}, {"measurement": "E. coli O157:H7 (log10 cfu/ml) at min: 10", "setting": "[4]", "result": 4.5, "unit": "log10 cfu/ml"}, {"measurement": "E. coli O157:H7 (log10 cfu/ml) at min: 20", "setting": "[4]", "result": 4.8, "unit": "log10 cfu/ml"}, {"measurement": "E. coli O157:H7 (log10 cfu/ml) at min: 0", "setting": "[5]", "result": "<1.7", "unit": "log10 cfu/ml"}, {"measurement": "E. coli O157:H7 (log10 cfu/ml) at min: 1", "setting": "[5]", "result": "<1.7", "unit": "log10 cfu/ml"}, {"measurement": "E. coli O157:H7 (log10 cfu/ml) at min: 2", "setting": "[5]", "result": "<1.7", "unit": "log10 cfu/ml"}, {"measurement": "E. coli O157:H7 (log10 cfu/ml) at min: 5", "setting": "[5]", "result": "<1.7", "unit": "log10 cfu/ml"}, {"measurement": "E. coli O157:H7 (log10 cfu/ml) at min: 10", "setting": "[5]", "result": "<1.7", "unit": "log10 cfu/ml"}, {"measurement": "E. coli O157:H7 (log10 cfu/ml) at min: 20", "setting": "[5]", "result": "<1.7", "unit": "log10 cfu/ml"}, {"measurement": "effect on killing E. coli O157:H7", "setting": "ozone 22-24 ppm at 5° C. or 8-12 ppm at 21° C., rumen content at ratios of 50:1 and higher", "result": "minimal effect"}]}
